Records with an inconclusive call do not appear. Activity calls are given as the source filed them. The rule behind the calls is not given here.
Target: CAAX prenyl protease 2 (Saccharomyces cerevisiae (strain ATCC 204508 / S288c)) (UniProt Q03530)
Assay: Rce1p protease inhibitors, dose response, biochemical, plate reader, cherry-pick (AID 488788)
Details: Rce1p enzyme activity; for activity change, negative = inhibition: at 10 µM (top of the series)

Chain of CAAX prenyl protease 2 (Saccharomyces cerevisiae (strain ATCC 204508 / S288c)) (Q03530 whole entry, looked up): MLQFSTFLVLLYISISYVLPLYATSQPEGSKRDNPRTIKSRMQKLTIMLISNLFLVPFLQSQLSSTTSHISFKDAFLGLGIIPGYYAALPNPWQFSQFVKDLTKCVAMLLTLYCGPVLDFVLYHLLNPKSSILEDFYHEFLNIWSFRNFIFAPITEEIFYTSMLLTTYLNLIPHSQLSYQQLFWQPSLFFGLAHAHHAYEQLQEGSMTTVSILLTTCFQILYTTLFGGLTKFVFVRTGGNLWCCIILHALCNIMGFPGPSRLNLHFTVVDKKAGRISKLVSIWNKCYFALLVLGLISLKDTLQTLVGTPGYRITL

SMILES | activity change, negative = inhibition | AC50
CCN(CC)CCCNC(=O)CCc1c(C)n(CC)c2cc(-c3ccccc3OC)nn2c1=O | inactive | –
CCCCOc1ccc(C(=O)Nn2c(-c3cccs3)nc3ccccc3c2=O)cc1 | inactive | –
CC(C)N1CCN(S(=O)(=O)c2ccc3ccccc3c2)CC1 | inactive | –
CCOc1ccc(N(CC(=O)NC2CC3CCC2C3)S(=O)(=O)c2ccccc2)cc1 (configuration not stated) | inactive | –
CCCOc1ccccc1C(=O)NCCCC(=O)O | inactive | –
FC(F)(F)c1cc(Oc2ccccc2)ncc1-c1nnc(-c2ccccc2Cl)o1 | inactive | –
Oc1ccc(-c2cn3cc(C(F)(F)F)ccc3n2)cc1 | inactive | –
N#CC(/C(=N/S(=O)(=O)c1cccs1)c1ccccc1)c1nc2ccccc2[nH]1 (configuration not stated) | inactive | –
COc1ccc(/C=N/NC(=O)c2ccc(Cl)cc2)cc1COC(C)=O | inactive | –
COC(=O)C(Cc1ccccc1)OS(N)(=O)=O (configuration not stated) | inactive | –
COCCn1cc(C(=O)NCCN(C)C)c2c3ccccc3n(C)c2c1=O | inactive | –
O=C1CCCN1CC(O)CS(=O)(=O)c1ccccc1 (configuration not stated) | inactive | –
COc1ccc(Cc2nc3ccc(C(=O)N4CCCC4)cc3o2)cc1 | inactive | –
COc1ccccc1N1CCN(C(=O)c2coc(=O)c(Br)c2)CC1 | inactive | –
c1cnn(Cc2cnc(N3CCOCC3)s2)c1 | inactive | –
COc1cc(NC(=O)C/C(C)=N/NC(=O)c2cccc(O)c2)c(OC)cc1Cl | inactive | –
COc1cc(-c2nc3ccccn3c2/N=C/c2ccccc2)ccc1O | inactive | –
Cc1cc2cc(C(=O)N3CCc4c([nH]c5ccccc45)C3c3ccccn3)ccc2o1 (configuration not stated) | inactive | –
COc1ccccc1C1=NN(C2=NN=C(N)Cc3ncnn32)C(O)(C(F)(F)F)C1 (configuration not stated) | inactive | –
O=C(O)CCC(=O)c1ccc(-c2ccccc2)cc1 | inactive | –
COC(=O)c1sccc1NC(=O)CSc1nnnn1-c1ccccc1C | inactive | –

SMILES | activity change, negative = inhibition | AC50
O=C(Nc1ccc(F)cc1)Oc1ccccc1N1CCOCC1 | inactive | –
c1ccc(CCCN2CCN(CCOC(c3ccccc3)c3ccccc3)CC2)cc1 | inactive | –
CC1CCc2c(sc(NC(=O)COC(=O)c3ccccc3NCc3ccco3)c2C#N)C1 (configuration not stated) | inactive | –
COc1cc2c(cc1OC)C(C)N(C(=O)c1cc3c(=O)oc4ccc(C)cc4c3s1)CC2 (configuration not stated) | inactive | –
CCOC(=O)c1c(-c2ccccc2)oc2ccc(OCC(O)CNCCN(C)C)cc12 (configuration not stated) | inactive | –
Cc1cc(N/N=C/c2ccc(O)c(C)c2O)nc(-c2ccccc2O)n1 | inactive | –
Cc1ccccc1OC(C)C(=O)N1CCC(Cc2ccccc2)CC1 (configuration not stated) | inactive | –
COCCCNC(=O)c1cc2cc3cc(OC)ccc3nc2o1 | inactive | –
CCC(=O)Nc1cc(-c2nn(CC(=O)N3CCCCC3)c(=O)c3ccccc23)ccc1N1CCOCC1 | inactive | –
CC(=O)NC(Cc1c[nH]c2ccccc12)C(=O)O (configuration not stated) | inactive | –
COC(C[C@@H](O)C[C@H](O)[C@H](C)OCc1ccccc1)OC | inactive | –
CC(C)CC(=O)Nc1ccc2oc(-c3cccnc3)nc2c1 | inactive | –
CCOC(=O)c1c(-c2ccc(OC)cc2)oc2ccc(OC(=O)N(C)C)cc12 | inactive | –
C=C(C)C1(O)OC(=O)C=C1OC (configuration not stated) | inactive | –
CC(Cc1cccs1)NC(=O)Nc1ccc([N+](=O)[O-])cc1 (configuration not stated) | inactive | –
COc1ccc(-c2ccc(-c3nnc(-c4cc(OC)ccc4OC)o3)cc2)cc1 | inactive | –
CCN(Cc1ccccc1)c1ccc(/C=N/N=C(N)N)cc1 | inactive | –
COc1ccccc1NC(=O)/C(=C\c1cccnc1)NC(=O)c1ccc(C)cc1 | inactive | –
C=CCn1c(O)c(C(CC)=Nc2ccc(N(CC)CC)cc2)c(=O)[nH]c1=O | inactive | –
Cn1c(CCNS(=O)(=O)c2ccccc2)nnc1SCc1cccnc1 | inactive | –
CCOc1ccc(-n2ccnc(SCC(=O)NC3CCCC3)c2=O)cc1 | inactive | –

SMILES | activity change, negative = inhibition | AC50
C/C(CC(=O)NCc1ccco1)=N\NC(=O)c1ccc([N+](=O)[O-])cc1Cl | inactive | –
CC(=O)NN1C(=O)c2ccccc2NC1c1ccccc1 (configuration not stated) | inactive | –
Cc1nc(N2CCOCC2)c2c(C)c(C(=O)Nc3ccccc3C(F)(F)F)sc2n1 | inactive | –
CCn1nc(C)cc1C(=O)NC1CC(C)(C)Cc2c1cnn2-c1cccc(F)c1 (configuration not stated) | inactive | –
CCOc1ccc(C2C(C#N)=C(N)Oc3c2c(=O)oc2ccccc32)cc1 (configuration not stated) | inactive | –
Cc1cccc(NC(=O)c2cc(S(=O)(=O)N3CCCCC3)c[nH]2)c1C | inactive | –
COc1cc2c(cc1OC)C(C)N(C(=O)CCNC(=O)c1ccccc1)CC2 (configuration not stated) | inactive | –
COc1ccc(-c2cc3ccccc3n2CC(O)CNCCO)cc1 (configuration not stated) | inactive | –
CN(C)CC(C)(C)CNC(=S)NCc1ccc2c(c1)OCO2 | inactive | –
Oc1ccc(-c2nc3ccccn3c2NCc2ccco2)cc1 | inactive | –
Cc1ccc(C(=O)N/C(=C/c2ccco2)C(=O)Nc2cccc(C(=O)O)c2)cc1 | inactive | –
CCOc1ccc(OCC)c(NC(=O)c2nnn(CC(=O)Nc3cc(C)cc(C)c3)c2N)c1 | inactive | –
COC(C/C=C\C(=O)[C@H](C)OCc1ccccc1)OC | – | > 10 µM (inactive)
COc1ccc2c3c([nH]c2c1)C(C)=NCC3 | inactive | –
CCOC(=O)C[C@H]1c2ccccc2S(=O)(=O)N1Cc1cc(OC)c(OC)c(OC)c1 | inactive | –
CN1CCN(c2ccc([N+](=O)[O-])c(Sc3nncn3C)c2)CC1 | inactive | –
COc1ccc(-n2c(N)c(C(=O)NCc3ccco3)c3nc4ccccc4nc32)c(OC)c1 | inactive | –
COc1cccc(-c2csc(N3CCN(C(=O)NC45CC6CC(CC(C6)C4)C5)CC3)n2)c1 | inactive | –
O=C(Nc1cc(S(=O)(=O)N2CCOCC2)ccc1N1CCCC1)c1cnccn1 | inactive | –
CC(C)C(NC(=O)c1ccco1)C(=O)NCC(c1ccco1)N1CCCCC1 (configuration not stated) | inactive | –
CCc1nc(Nc2ccncc2)c2oc3ccccc3c2n1 | inactive | –

SMILES | activity change, negative = inhibition | AC50
O=C(N/N=C/C1CC=CCC1)c1ccc(O)cc1O (configuration not stated) | inactive | –
COc1ccc(C(=O)/C=C/c2ccc(OC)cc2OC)c(O)c1 | inactive | –
O=C1C(Cc2c[nH]c3ccccc23)NC(=S)N1Cc1ccccc1 (configuration not stated) | inactive | –
CCC(=O)Nc1cccc(NC(=S)NC(=O)c2cccs2)c1 | inactive | –
COc1ccc(OCC(=O)NS(=O)(=O)c2ccc(Cl)cc2)cc1 | inactive | –
COc1cc(-c2nc3ccccn3c2/N=C/c2cc(OC)c(OC)c(OC)c2)ccc1O | inactive | –
O=C(Nc1cc(Cl)cc(Cl)c1)c1coc(=O)c(Br)c1 | inactive | –
CCOC(=O)c1nnn2c1nc(N1CCOCC1)c1ccccc12 | inactive | –
CCO[C@@H]1OC(C(=O)N2CCN(Cc3ccccc3)CC2)=C[C@H](c2ccccc2)[C@H]1CCCO | inactive | –
O=C(COc1ncnc2cc([N+](=O)[O-])ccc12)NC(=O)NC1CCCCC1 | inactive | –
C/C(CC1(O)C(=O)Nc2ccccc21)=N\O (configuration not stated) | inactive | –
COC(C[C@@H]1O[C@@H]1C(=O)[C@@H](C)OCc1ccccc1)OC | inactive | –
CCN(CC)c1ccc(C(=O)c2ccccc2C(=O)O)c(O)c1 | inactive | –
COc1ccc(-c2nc3ncccc3o2)cc1NC(=O)c1ccco1 | inactive | –
CCOC(=O)c1sc2nc(C3CC3)cc(-c3ccc(OC)cc3)c2c1N | inactive | –
CC(C)CNC(=O)COc1cccc(C(=O)NCc2ccccc2)c1 | inactive | –
COc1cc(-c2c(C#N)c(N)nc3c2c(C)nn3-c2ccc(C)c(C)c2)cc(OC)c1OC | inactive | –
COc1ccc(-c2c(-c3ccsc3)oc3ccc(N4CCOCC4)cc23)cn1 | inactive | –
CCC(COC)NC(=O)CCc1nnc(Cc2cccc(C(F)(F)F)c2)o1 (configuration not stated) | inactive | –

Reference: PubChem BioAssay AID488788 (Broad Institute, 2010)
